# According to patent US20050075375A1 (priority 2003, published 2005):
# System: monocistronic NK5.1 HCV replicon in Huh7 cells
# Assay: HCV replicon assay, monocistronic replicon cell line
# Assay type: cell-based, hepatitis C virus
# Details: Hepatitis C virus, Huh-7; monocistronic NK5.1 HCV replicon in Huh7 cells; median value; read-out: Mono EC50 Median
# Method in brief: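 Huh7 cells carrying the monocistronic NK5.1 replicon, seeded 24 h before dosing, were exposed to six-point half-log compound series (0.6% DMSO) for 3 days at 37 °C. Replicon RNA was quantified by TaqMan RT-PCR, normalised to GAPDH and compared with DMSO controls to derive EC50.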
row,Compound,EC50
1,"COc1ccccc1-c1nnc(-c2ccccc2F)o1 [Compound 326, 2-(2-Fluoro-phenyl)-5-(2-methoxy-phenyl)-[1,3,4]oxadiazole]",> 32 µM
2,"COc1ccccc1-c1nnc(-c2ccccc2C(F)(F)F)o1 [Compound 327, 2-(2-Methoxy-phenyl)-5-(2-trifluoromethyl-phenyl)-[1,3,4]oxadiazole]",25 µM
3,"COc1ccccc1-c1nnc(-c2ccccc2[N+](=O)[O-])o1 [Compound 328, 2-(2-Methoxy-phenyl)-5-(2-nitro-phenyl)-[1,3,4]oxadiazole]",> 32 µM
4,"COc1ccccc1-c1nnc(-c2c(Cl)cccc2Cl)o1 [Compound 329, 2-(2,6-Dichloro-phenyl)-5-(2-methoxy-phenyl)-[1,3,4]oxadiazole]",> 32 µM
5,"COc1ccccc1-c1nnc(-c2ccco2)o1 [Compound 330, 2-Furan-2-yl-5-(2-methoxy-phenyl)-[1,3,4]oxadiazole]",> 32 µM
6,"COc1ccccc1-c1nnc(-c2cccs2)o1 [Compound 331, 2-(2-Methoxy-phenyl)-5-thiophen-2-yl-[1,3,4]oxadiazole]",> 32 µM
7,"Fc1ccccc1-c1nnc(-c2ccccc2)o1 [Compound 332, 2-(2-Fluoro-phenyl)-5-phenyl-[1,3,4]oxadiazole]",> 32 µM
8,"Fc1ccccc1-c1nnc(-c2ccccc2F)o1 [Compound 333, 2,5-Bis-(2-fluoro-phenyl)-[1,3,4]oxadiazole]",> 32 µM
9,"Fc1ccccc1-c1nnc(-c2ccccc2C(F)(F)F)o1 [Compound 334, 2-(2-Fluoro-phenyl)-5-(2-trifluoromethyl-phenyl)-[1,3,4]oxadiazole]",> 32 µM
10,"Fc1ccccc1-c1nnc(-c2c(Cl)cccc2Cl)o1 [Compound 335, 2-(2,6-Dichloro-phenyl)-5-(2-fluoro-phenyl)-[1,3,4]oxadiazole]",> 32 µM
11,"Fc1ccccc1-c1nnc(-c2ccco2)o1 [Compound 336, 2-(2-Fluoro-phenyl)-5-furan-2-yl-[1,3,4]oxadiazole]",> 32 µM
12,"Fc1ccccc1-c1nnc(-c2cccs2)o1 [Compound 337, 2-(2-Fluoro-phenyl)-5-thiophen-2-yl-[1,3,4]oxadiazole]",> 32 µM
13,"Oc1ccc2ccccc2c1-c1nnc(-c2ncccc2C(F)(F)F)o1 [Compound 338, 1-[5-(3-Trifluoromethyl-pyridin-2-yl)-[1,3,4]oxadiazol-2-yl]-naphthalen-2-ol]",> 19 µM
14,"Cc1ccccc1-c1nnc(-c2ccccn2)o1 [Compound 339, 2-(5-o-Tolyl-[1,3,4]oxadiazol-2-yl)-pyridine]",> 32 µM
15,"Cc1ccccc1-c1nnc(-c2ncccc2C(F)(F)F)o1 [Compound 340, 2-(5-o-Tolyl-[1,3,4]oxadiazol-2-yl)-3-trifluoromethyl-pyridine]",> 32 µM
16,"Cc1ccccc1-c1nnc(-c2ncc(C(F)(F)F)cc2Cl)o1 [Compound 341, 3-Chloro-2-(5-o-tolyl-[1,3,4]oxadiazol-2-yl)-5-trifluoromethyl-pyridine]",20 µM
17,"Oc1ccccc1-c1nnc(-c2ncccc2C(F)(F)F)o1 [Compound 342, 2-[5-(3-Trifluoromethyl-pyridin-2-yl)-[1,3,4]oxadiazol-2-yl]-phenol]",> 32 µM
18,"Oc1ccccc1-c1nnc(-c2ncc(C(F)(F)F)cc2Cl)o1 [Compound 343, 2-[5-(3-Chloro-5-trifluoromethyl-pyridin-2-yl)-[1,3,4]oxadiazol-2-yl]-phenol]",17 µM
19,"COc1ccccc1-c1nnc(-c2ccccn2)o1 [Compound 344, 2-[5-(2-Methoxy-phenyl)-[1,3,4]oxadiazol-2-yl]-pyridine]",> 32 µM

row,Compound,EC50
1,COc1ccccc1-c1nnc(-c2ncccc2C(F)(F)F)o1 [Compound 345],8.3 µM
2,"COc1ccccc1-c1nnc(-c2ncc(C(F)(F)F)cc2Cl)o1 [Compound 346, 3-Chloro-2-[5-(2-methoxy-phenyl)-[1,3,4]oxadiazol-2-yl]-5-trifluoromethyl-pyridine]",> 32 µM
3,"Fc1ccccc1-c1nnc(-c2ccccn2)o1 [Compound 347, 2-[5-(2-Fluoro-phenyl)-[1,3,4]oxadiazol-2-yl]-pyridine]",> 32 µM
4,"Fc1ccccc1-c1nnc(-c2ncccc2C(F)(F)F)o1 [Compound 348, 2-[5-(2-Fluoro-phenyl)-[1,3,4]oxadiazol-2-yl]-3-trifluoromethyl-pyridine]",> 32 µM
5,"Fc1ccccc1-c1nnc(-c2ncc(C(F)(F)F)cc2Cl)o1 [Compound 349, 3-Chloro-2-[5-(2-fluoro-phenyl)-[1,3,4]oxadiazol-2-yl]-5-trifluoromethyl-pyridine]",> 32 µM
6,"c1ccc(-c2n[nH]c(-c3cccc4ccccc34)n2)nc1 [Compound 350, 2-(5-Naphthalen-1-yl-1H-[1,2,4]triazol-3-yl)-pyridine]",> 19 µM
7,"CC(C)(C)c1ccc(O)c(-c2nc(-c3ccccn3)n[nH]2)c1 [Compound 351, 4-tert-Butyl-2-(5-pyridin-2-yl-2H-[1,2,4]triazol-3-yl)-phenol]",8.6 µM
8,"O=[N+]([O-])c1ccc(O)c(-c2nc(-c3ccccn3)n[nH]2)c1 [Compound 352, 4-Nitro-2-(5-pyridin-2-yl-2H-[1,2,4]triazol-3-yl)-phenol]",14 µM
9,"Oc1ccc(F)cc1-c1nc(-c2ccccn2)n[nH]1 [Compound 353, 4-Fluoro-2-(5-pyridin-2-yl-2H-[1,2,4]triazol-3-yl)-phenol]",7.1 µM
10,"Oc1ccc(Cl)cc1-c1nc(-c2ccccn2)n[nH]1 [Compound 354, 4-Chloro-2-(5-pyridin-2-yl-2H-[1,2,4]triazol-3-yl)-phenol]",4.8 µM
11,"CCOc1cccc(-c2nc(-c3ccccn3)n[nH]2)c1O [Compound 355, 6-Ethoxy-2-(5-pyridin-2-yl-2H-[1,2,4]triazol-3-yl)-phenol]",> 19 µM
12,"Oc1cc(OCc2ccccc2)ccc1-c1nc(-c2ccccn2)n[nH]1 [Compound 356, 5-Benzyloxy-2-(5-pyridin-2-yl-2H-[1,2,4]triazol-3-yl)-phenol]",> 19 µM
13,"Fc1cc(-c2nc(-c3ccccn3)n[nH]2)ccc1-c1ccccc1 [Compound 357, 2-[5-(2-Fluoro-biphenyl-4-yl)-1H-[1,2,4]triazol-3-yl]-pyridine]",7.1 µM
14,"Oc1ccc(Br)cc1-c1nc(-c2ccccn2)n[nH]1 [Compound 358, 4-Bromo-2-(5-pyridin-2-yl-2H-[1,2,4]triazol-3-yl)-phenol]",4.3 µM
15,"Cc1ccc(O)c(-c2nc(-c3ccccn3)n[nH]2)c1 [Compound 359, 4-Methyl-2-(5-pyridin-2-yl-2H-[1,2,4]triazol-3-yl)-phenol]",> 19 µM
16,"COc1ccc(O)c(-c2nc(-c3ccccn3)n[nH]2)c1 [Compound 360, 4-Methoxy-2-(5-pyridin-2-yl-2H-[1,2,4]triazol-3-yl)-phenol]",5.4 µM
17,"Oc1ccccc1-c1nc(-c2ccccn2)n[nH]1 [Compound 361, 2-(5-pyridin-2-yl-2H-[1,2,4]triazol-3-yl)-phenol]",> 19 µM
18,"COc1cccc(-c2nc(-c3ccccn3)n[nH]2)c1O [Compound 362, 6-Methoxy-2-(5-pyridin-2-yl-2H-[1,2,4]triazol-3-yl)-phenol]",> 19 µM
19,"COc1ccc(-c2nc(-c3ccccn3)n[nH]2)c(O)c1 [Compound 363, 5-Methoxy-2-(5-pyridin-2-yl-2H-[1,2,4]triazol-3-yl)-phenol]",> 19 µM
